SMILES strings stand for the structures. Structures can show the parent of a compound that is named as a salt.

Chain of PDE4B (Q07343 whole entry, species assumed): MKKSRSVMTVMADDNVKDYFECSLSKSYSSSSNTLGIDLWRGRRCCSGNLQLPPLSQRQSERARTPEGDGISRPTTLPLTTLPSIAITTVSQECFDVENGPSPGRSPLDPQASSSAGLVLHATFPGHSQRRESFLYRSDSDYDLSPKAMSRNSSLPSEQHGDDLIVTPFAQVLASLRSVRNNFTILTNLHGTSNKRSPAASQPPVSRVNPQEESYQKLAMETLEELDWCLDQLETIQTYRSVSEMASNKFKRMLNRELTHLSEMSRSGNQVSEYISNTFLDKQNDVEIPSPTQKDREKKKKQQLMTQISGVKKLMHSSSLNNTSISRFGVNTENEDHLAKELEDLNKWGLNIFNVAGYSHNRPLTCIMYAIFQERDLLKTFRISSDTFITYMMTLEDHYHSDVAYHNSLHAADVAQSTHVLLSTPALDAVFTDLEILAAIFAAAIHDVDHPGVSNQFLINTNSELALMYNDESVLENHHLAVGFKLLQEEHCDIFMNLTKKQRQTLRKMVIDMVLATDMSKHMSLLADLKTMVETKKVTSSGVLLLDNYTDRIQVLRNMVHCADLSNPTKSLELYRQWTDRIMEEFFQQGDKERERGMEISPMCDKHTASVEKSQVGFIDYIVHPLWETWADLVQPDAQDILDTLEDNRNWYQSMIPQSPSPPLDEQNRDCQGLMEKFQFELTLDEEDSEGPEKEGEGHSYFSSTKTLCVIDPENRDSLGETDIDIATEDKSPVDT

For this experiment, the target named is PDE4B (Homo sapiens, UniProt Q07343). The experiment is described as follows: Scintillation Proximity Assay (SPA) of PDE4B enzymatic activity ([H3]-cAMP cleavage). It is filed as biochemical. As to conditions: test substance 1 μM; one-hour incubation with [H3]-cAMP and PDE4B at 30° C. The protocol:
The Scintillation Proximity Assay (SPA) (GE Healthcare, No. TRKQ7090) was carried out by using the different affinities of cyclic 3″-5″-adenosinemonophosphate (cAMP, low affinity) and linear 5″-adenosinemonophosphate (AMP, high affinity) for yttrium silicate scintillator beads. The cAMP specific phosphodiesterase (PDE) PDE4B cleaves the 3″-phosphoester bond of tritium-labelled [H3]-cAMP to form [H3]-5″-AMP. This [H3]-AMP accumulates on the scintillator beads because of its higher affinity for them and causes scintillation events (flashes of light) which are measured in a Wallac Microbeta Scintillation Counter.
The experiment starts with a one-hour incubation of [H3]-cAMP with the PDE4B enzyme in assay buffer at 30° C., in each case once with the Example substance to be tested (in a concentration of 1 μM) and once without the Example substance to be tested.
After this incubation, the reaction is stopped by the addition of the beads. The beads have an opportunity to settle in the next 45 minutes, then the measurement is carried out in the Scintillation Counter. If the substance is capable of inhibiting the enzymatic activity of the PDE4B, less [H3]-AMP is produced during the incubation phase and fewer scintillation events can be measured.
In turn, `CC(C)[C@H](CO)Nc1nc(N2CCN(c3ccnnc3)CC2)nc2c1[S+]([O-])CC2` (stereo partly drawn) [Example 39, (R)-3-methyl-2-[5-oxo-2-(4-pyridazin-4-yl-piperazin-1-yl)-6,7-dihydro-5H-5λ^4-thieno[3,2-d]pyrimidin-4-ylamino]-butan-1-ol trifluoroacetate] came in with an inhibition at 1 µM of 92%. Then `[O-][S+]1CCc2nc(N3CCN(c4ccncn4)CC3)nc(NC3(CO)CC3)c21` (stereo not drawn) [Example 55, {1-[5-oxo-2-(4-pyrimidin-4-yl-piperazin-1-yl)-6,7-=dihydro-5H-5λ^4-thieno[3,2-d]pyrimidin-4-ylamino]-cyclopropyl}-methanol trifluoroacetate], with 95%; and `[O-][S+]1CCc2nc(N3CCN(c4ccncc4)CC3)nc(NC3(CO)CC3)c21` (stereo not drawn) [Example 58, {1-[5-oxo-2-(4-pyridin-4-yl-piperazin-1-yl)-6,7-dihydro-5H-5λ^4-thieno[3,2-d]pyrimidin-4-ylamino]-cyclopropyl}-methanol trifluoroacetate], with 91%; and `CN1C[C@@H](Nc2nc(N3CCN(c4ccncn4)CC3)nc3c2[S+]([O-])CC3)CCC1=O` (stereo partly drawn) [Example 71, (S)-1-methyl-5-[5-oxo-2-(4-pyrimidin-4-yl-piperazin-1-yl)-6,7-dihydro-5H-5λ^4-thieno[3,2-d]pyrimidin-4-ylamino]-piperidin-2-one], with 96%.

For `Cn1c(N2CCN(c3nc4c(c(NC5CCOCC5)n3)[S+]([O-])CC4)CC2)nc2cc(F)ccc21` (stereo not drawn) [Example 87, {2-[4-(5-fluoro-1-methyl-1H-benzoimidazol-2-yl)-piperazin-1-yl]-5-oxo-6,7-dihydro-5H-5λ^4-thieno[3,2-d]pyrimidin-4-yl}-(tetrahydropyran-4-yl)-amine], 1 µM produced 96% inhibition. Then `[O-][S+]1CCc2nc(N3CCN(c4ccncc4)CC3)nc(NC3CCOCC3)c21` (stereo not drawn) [Example 96, [5-oxo-2-(4-pyridin-4-yl-piperazin-1-yl)-6,7-dihydro-5H-5λ^4-thieno[3,2-d]pyrimidin-4-yl]-(tetrahydropyran-4-yl)-amine trifluoroacetate], with 93%; and `COc1cccc2c1nc(N1CCN(c3nc4c(c(Nc5cccc(F)c5)n3)[S+]([O-])CC4)CC1)n2C` (stereo not drawn) [Example 108, (3-fluorophenyl)-{2-[4-(4-methoxy-1-methyl-1H-benzimidazol-2-yl)-piperazin-1-yl]-5-oxo-6,7-dihydro-5H-5λ^4-thieno[3,2-d]pyrimidin-4-yl}-amine trifluoroacetate], with 95%; and `CCN1CCc2ncc(N3CCN(c4nc5c(c(Nc6cccc(F)c6)n4)[S+]([O-])CC5)CC3)nc2CC1` (stereo not drawn) [Example 109, {2-[4-(7-ethyl-6,7,8,9-tetrahydro-5H-pyrazino[2,3-d]azepin-2-yl)-piperazin-1-yl]-5-oxo-6,7-dihydro-5H-5λ^4-thieno[3,2-d]pyrimidin-4-yl}-(3-fluorophenyl)-amine trifluoroacetate], with 96%. Then `[O-][S+]1CCc2nc(N3CCN(c4ccncn4)CC3)nc(Nc3cccc(F)c3)c21` (stereo not drawn) [Example 113, (3-fluorophenyl)-[5-oxo-2-(4-pyrimidin-4-yl-piperazin-1-yl)-6,7-dihydro-5H-5λ^4-thieno[3,2-d]pyrimidin-4-yl]-amine trifluoroacetate], with 96%. Then `[O-][S+]1CCc2nc(N3CCN(c4ccnc(O)c4)CC3)nc(Nc3cccc(F)c3)c21` (stereo not drawn) [Example 114, 4-{4-[4-(3-fluorophenylamino)-5-oxo-6,7-dihydro-5H-5λ^4-thieno[3,2-d]pyrimidin-2-yl]-piperazin-1-yl}-pyridin-2-ol], with 96%. `[O-][S+]1CCc2nc(N3CCN(c4ccncc4)CC3)nc(Nc3cccc(F)c3)c21` (stereo not drawn) [Example 117, (3-fluorophenyl)-[5-oxo-2-(4-pyridin-4-yl-piperazin-1-yl)-6,7-dihydro-5H-5λ^4-thieno[3,2-d]pyrimidin-4-yl]-amine] displayed an inhibition at 1 µM of 96%. The result for `[O-][S+]1CCc2nc(N3CCN(c4nc(-c5ccc(F)cc5)cs4)CC3)nc(Nc3cccc(F)c3)c21` (stereo not drawn) [Example 142, (3-fluorophenyl)-(2-{4-[4-(4-fluorophenyl)-thiazol-2-yl]-piperazin-1-yl}-5-oxo-6,7-dihydro-5H-5λ^4-thieno[3,2-d]pyrimidin-4-yl)-amine] reads 95%. The result for `[O-][S+]1CCc2nc(N3CCN(c4noc5ccccc45)CC3)nc(Nc3cccc(F)c3)c21` (stereo not drawn) [Example 144, [2-(4-benzo[d]isoxazol-3-yl-piperazin-1-yl)-5-oxo-6,7-dihydro-5H-5λ^4-thieno[3,2-d]pyrimidin-4-yl]-(3-fluorophenyl)-amine] reads 96%; that for `CC(C)[C@H](CO)Nc1nc(N2CCN(c3nc(-c4ccc(F)cc4)cs3)CC2)nc2c1[S+]([O-])CC2` (stereo partly drawn) [Example 148, (R)-2-(2-{4-[4-(4-fluorophenyl)-thiazol-2-yl]-piperazin-1-yl}-5-oxo-6,7-dihydro-5H-5λ^4-thieno[3,2-d]pyrimidin-4-ylamino)-3-m ethylbutan-1-ol], 95%. The result for `CC(C)[C@H](CO)Nc1nc(N2CCN(c3noc4ccccc34)CC2)nc2c1[S+]([O-])CC2` (stereo partly drawn) [Example 150, (R)-2-[2-(4-benzo[d]isoxazol-3-yl-piperazin-1-yl)-5-oxo-6,7-dihydro-5H-5λ^4-thieno[3,2-d]pyrimidin-4-ylamino]-3-methylbutan-1-ol] reads 95%.

A word on the inhibition: it is the percentage by which the read-out fell short of the control. A higher inhibition goes with a strong effect.

The values above are taken from patent publication US9115142B2, “Heterocycle-substituted piperazino-dihydrothienopyrimidines” (Boehringer Ingelheim International GmbH, priority 2007, dated 2015).
